US20260199323A1, “LIGAND COMPOUNDS FOR E3 UBIQUITIN LIGASE, PROTEIN DEGRADERS DEVELOPED ON BASIS OF LIGAND COMPOUNDS, AND USES THEREOF” (GLUETACS THERAPEUTICS (SHANGHAI) CO., LTD., priority 2021, published 2026)
Like-named read-outs stand apart in the source and are kept apart here.

Columns and labels:
SR = experiment: CCK-8 tumor cell proliferation, SR; assay type: cell-based, Human; settings: Homo sapiens; Table 15, ALK inhibitor based; SR; read-out: IC50 inhibiting proliferation of tumor cells, SR
Summary of the method: (§1)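 IC50 derived from CCK-8 cell viability after compound treatment. Dilution series: 10 concentrations, 5-fold apart, from 10 μM. Compound added 24 h post-seeding; culture at 37 °C in 5% CO2.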

MDA-MB-231 = experiment: CCK-8 tumor cell proliferation, MDA-MB-231; assay type: cell-based, Human; settings: Homo sapiens; Table 15, ALK inhibitor based; MDA-MB-231; read-out: IC50 inhibiting proliferation of tumor cells, MDA-MB-231
Summary of the method: as §1

PC-9 = experiment: CCK-8 tumor cell proliferation, PC-9; assay type: cell-based, Human; settings: Homo sapiens; Table 15, ALK inhibitor based; PC-9; read-out: IC50 inhibiting proliferation of tumor cells, PC-9
NCI-H1975 = experiment: CCK-8 tumor cell proliferation, NCI-H1975; assay type: cell-based, Human; settings: for IC50: Homo sapiens, Table 15, ALK inhibitor based, NCI-H1975, read-out: IC50 inhibiting proliferation of tumor cells, NCI-H1975
Method: (§2) The tumor cells used herein were cultured in a cell culture medium listed in table 4 at 37° C. in an incubator with 5% CO2. Prior to experimentation, all cells used were correctly identified by STR profiling, and tested negative for mycoplasma through routine screenings.
(§3) IC50 values of the compounds of the present disclosure (including the compounds in Tables 1 and 3, and compounds of examples) were measured using the Meilun Cell Counting Kit-8 kit from Dalian Meilun Biotech Co., Ltd. Assay details are as follows: tumor cells were seeded in a 96-well plate at a density listed in Table 5. After 24 h, 100 μL of the inoculated cells were treated with 0.5 μL of the compounds of the present disclosure (including the compounds in Tables 1 and 3, and compounds of examples) at 10 different successively decreasing concentrations (starting at the highest concentration of 10 μM; 5-fold serial dilutions). After the cells were treated with the compounds of the present disclosure for a period of time, the cell viability detection reagent was added to the culture medium for cell viability assessment according to the instructions provided with the CCK-8 kit. […] The growth inhibition of the compounds of the present disclosure on cells was plotted by Prism Graphpad software, and the IC50 values of the compounds of the present disclosure were calculated therefrom.

CCRF-CEM = experiment: CCK-8 tumor cell proliferation, CCRF-CEM; assay type: cell-based, Human; parameters: IC50 for inhibiting the proliferation of tumor cells, CCRF-CEM: scale not given here; settings: for IC50: Homo sapiens, CCRF-CEM, read-out: IC50 inhibiting proliferation of tumor cells, CCRF-CEM
Summary of the method: as §1

Vcap = experiment: CCK-8 tumor cell proliferation, Vcap; assay type: cell-based, Human; settings: Table 7, designed based on BTK inhibitors; 96 h
Method: as §2, §3

MM.1S = experiment: CCK-8 tumor cell proliferation, MM.1S; assay type: cell-based; settings: Homo sapiens, MM1.S; Table 18, FAK inhibitor based; MM.1S; read-out: IC50 inhibiting proliferation of tumor cells, MM.1S
Method: as §2, §3

SW620 = experiment: CCK-8 tumor cell proliferation, SW620; assay type: cell-based, Human; settings: Homo sapiens, SW-620, SW620, read-out: IC50 inhibiting proliferation of tumor cells, SW620
Summary of the method: as §1

CAL-62 = experiment: CCK-8 tumor cell proliferation, CAL-62; assay type: cell-based, Human; settings: Homo sapiens, CAL-62, read-out: IC50 inhibiting proliferation of tumor cells, CAL-62
Summary of the method: as §1

Hep3B2.7-1 = experiment: CCK-8 tumor cell proliferation, Hep3B2.7-1; assay type: cell-based, Human; settings: Homo sapiens
Method: as §2, §3

Jurkat = experiment: CCK-8 tumor cell proliferation, Jurkat; assay type: cell-based, Human; settings: Homo sapiens, Table 19, IRAK4 inhibitor based, read-out: IC50 inhibiting proliferation of tumor cells, Jurkat
Method: as §2, §3

LNcap = experiment: CCK-8 tumor cell proliferation, LNcap; assay type: cell-based, Human; settings: Homo sapiens; Table 19, IRAK4 inhibitor based; Lncap; read-out: IC50 inhibiting proliferation of tumor cells, Lncap
Method: as §2, §3

Kasumi-1 = experiment: CCK-8 tumor cell proliferation, Kasumi-1; assay type: cell-based, Human; settings: Homo sapiens; Table 19, IRAK4 inhibitor based; Kasumi-1; read-out: IC50 inhibiting proliferation of tumor cells, Kasumi-1
Method: as §2, §3

[1] = Table 7, designed based on BTK inhibitors, 96 h
[2] = Table 19, IRAK4 inhibitor based
[3] = Table 19, IRAK4 inhibitor based, Hep3B2.7-1, read-out: IC50 inhibiting proliferation of tumor cells, Hep3B2.7-1

C[C@@H](Oc1cc(-c2cnn(C3CCN(Cc4ccc5c(c4)CN(C4CCC(=O)NC4=O)C5=O)CC3)c2)cnc1N)c1c(Cl)ccc(F)c1Cl (stereo partly drawn) [GT-02974, 3-(5-((4-(4-(6-amino-5-((R)-1-(2,6-dichloro-3-fluorophenyl)ethoxy)pyridin-3-yl)-1H-pyrazol-1-yl)piperidin-1-yl)methyl)-1-oxoisoindolin-2-yl)piperidine-2,6-dione]
IC50 (SR): 50 to 100 nM
IC50 (MDA-MB-231): 1000 to 5000 nM
IC50 (PC-9): 1000 to 5000 nM
IC50 (NCI-H1975): 1000 to 5000 nM

Nc1ncnc2c1c(-c1ccc(Oc3ccccc3)cc1)nn2C1CCN(Cc2cc(F)c3c(c2)CN(C2CCC(=O)NC2=O)C3=O)CC1 (stereo not shown) [GT-03473, 3-(5-((4-(4-amino-3-(4-phenoxyphenyl)-1H-pyrazolo[3,4-d]pyrimidin-1-yl)piperidin-1-yl)methyl)-7-fluoro-1-oxoisoindolin-2-yl)piperidine-2,6-dione]
IC50 for inhibiting the proliferation of tumor cells, CCRF-CEM (CCRF-CEM; [1]): A+
IC50 for inhibiting the proliferation of tumor cells, Vcap (Vcap): A+
IC50 for inhibiting the proliferation of tumor cells, NCI-H1975 (NCI-H1975; [1]): A+

Cc1cc(Nc2ncc(Cl)c(Nc3ccccc3S(=O)(=O)C(C)C)n2)c(OC(C)C)cc1N1CCC(N(C)Cc2ccc3c(c2)CN(C2CCC(=O)NC2=O)C3=O)CC1 (stereo not shown) [GT-03530, 3-(5-(((1-(4-((5-chloro-4-((2-(isopropylsulfonyl)phenyl)amino)pyrimidin-2-yl)amino)-5-isopropoxy-2-methylphenyl)piperidin-4-yl)(methyl)amino)methyl)-1-oxoisoindolin-2-yl)piperidine-2,6-dione]
IC50 (SR): < 50 nM
IC50 (MDA-MB-231): 500 to 1000 nM
IC50 (PC-9): 500 to 1000 nM
IC50 (NCI-H1975): 1000 to 5000 nM

CNC(=O)c1ccccc1Nc1cc(Nc2cc(C)c(C3CCN(Cc4ccc5c(c4)CN(C4CCC(=O)NC4=O)C5=O)CC3)cc2OC(C)C)ncc1C(F)(F)F (stereo not shown) [GT-04078, 2-((2-((4-(1-((2-(2,6-dioxopiperidin-3-yl)-1-oxoisoindolin-5-yl)methyl)piperidin-4-yl)-2-isopropoxy-5-methylphenyl)amino)-5-(trifluoromethyl)pyridin-4-yl)amino)-N-methylbenzamide]
IC50 (MM.1S): < 50 nM
IC50 (SW620; Table 18, FAK inhibitor based): 100 to 500 nM
IC50 (CCRF-CEM; Table 18, FAK inhibitor based): < 50 nM
IC50 (CAL-62; Table 18, FAK inhibitor based): < 50 nM
IC50 (Hep3B2.7-1; Table 18, FAK inhibitor based, HEP3B2.7-1, read-out: IC50 inhibiting proliferation of tumor cells, HEP3B2.7-1): < 50 nM

O=C1CCC(N2C(=O)c3ccc(CN4CCC(n5cc(NC(=O)c6coc(-c7ccnc(NCC(F)(F)F)c7)n6)c(C(F)F)n5)CC4)cc3C2=O)C(=O)N1 (stereo not shown) [GT-04088, N-(3-(difluoromethyl)-1-(1-((2-(2,6-dioxopiperidin-3-yl)-1,3-dioxoisoindolin-5-yl)methyl)piperidin-4-yl)-1H-pyrazol-4-yl)-2-(2-((2,2,2-trifluoroethyl)amino)pyridin-4-yl)oxazole-4-carboxamide]
IC50 (Jurkat): < 50 nM
IC50 (SW620; [2]): 100 to 500 nM
IC50 (CCRF-CEM; [2]): < 50 nM
IC50 (CAL-62; [2]): < 50 nM
IC50 (LNcap): 100 to 500 nM

O=C1CCC(N2Cc3c(CN4CCC(n5cc(NC(=O)c6coc(-c7ccnc(NCC8CC8)c7)n6)c(C(F)F)n5)CC4)cccc3C2=O)C(=O)N1 (stereo not shown) [GT-04173, 2-(2-((cyclopropylmethyl)amino)pyridin-4-yl)-N-(3-(difluoromethyl)-1-(1-((2-(2,6-dioxopiperidin-3-yl)-1-oxoisoindolin-4-yl)methyl)piperidin-4-yl)-1H-pyrazol-4-yl)oxazole-4-carboxamide]
IC50 (Jurkat): 500 to 1000 nM
IC50 (SW620; [2]): 1000 to 5000 nM
IC50 (CCRF-CEM; [2]): 1000 to 5000 nM
IC50 (CAL-62; [2]): 1000 to 5000 nM
IC50 (LNcap): 100 to 500 nM

O=C1CCC(N2C(=O)c3ccc(CN4CCC(n5cc(NC(=O)c6coc(-c7ccnc(NCC8CC8)c7)n6)c(C(F)F)n5)CC4)cc3C2=O)C(=O)N1 (stereo not shown) [GT-04174, 2-(2-((cyclopropylmethyl)amino)pyridin-4-yl)-N-(3-(difluoromethyl)-1-(1-((2-(2,6-dioxopiperidin-3-yl)-1,3-dioxoisoindolin-5-yl)methyl)piperidin-4-yl)-1H-pyrazol-4-yl)oxazole-4-carboxamide]
IC50 (Jurkat): 50 to 100 nM
IC50 (SW620; [2]): 100 to 500 nM
IC50 (CCRF-CEM; [2]): < 50 nM
IC50 (CAL-62; [2]): < 50 nM
IC50 (LNcap): 500 to 1000 nM

O=C1CCC(N2Cc3cc(CN4CCN(c5ccc(-n6cc(NC(=O)c7coc(-c8ccnc(NCC(F)(F)F)c8)n7)c(C(F)F)n6)cc5)CC4)ccc3C2=O)C(=O)N1 (stereo not shown) [GT-04267, N-(3-(difluoromethyl)-1-(4-(4-((2-(2,6-dioxopiperidin-3-yl)-1-oxoisoindolin-5-yl)methyl)piperazin-1-yl)phenyl)-1H-pyrazol-4-yl)-2-(2-((2,2,2-trifluoroethyl)amino)pyridin-4-yl)oxazole-4-carboxamide]
IC50 (Kasumi-1): 100 to 500 nM
IC50 (Jurkat): 500 to 1000 nM
IC50 (Hep3B2.7-1; [3]): 100 to 500 nM

O=C1CCC(N2Cc3c(ccc(CN4CCN(c5ccc(-n6cc(NC(=O)c7coc(-c8ccnc(NCC(F)(F)F)c8)n7)c(C(F)F)n6)cc5)CC4)c3F)C2=O)C(=O)N1 (stereo not shown) [GT-04268, N-(3-(difluoromethyl)-1-(4-(4-((2-(2,6-dioxopiperidin-3-yl)-4-fluoro-1-oxoisoindolin-5-yl)methyl)piperazin-1-yl)phenyl)-1H-pyrazol-4-yl)-2-(2-((2,2,2-trifluoroethyl)amino)pyridin-4-yl)oxazole-4-carboxamide]
IC50 (Kasumi-1): 100 to 500 nM
IC50 (Jurkat): 500 to 1000 nM
IC50 (Hep3B2.7-1; [3]): 500 to 1000 nM

O=C1CCC(N2Cc3cc(CN4CCN(c5ccc(-n6cc(NC(=O)c7coc(-c8ccnc(NCC(F)(F)F)c8)n7)c(C(F)F)n6)cc5)CC4)cc(F)c3C2=O)C(=O)N1 (stereo not shown) [GT-04270, N-(3-(difluoromethyl)-1-(4-(4-((2-(2,6-dioxopiperidin-3-yl)-7-fluoro-1-oxoisoindolin-5-yl)methyl)piperazin-1-yl)phenyl)-1H-pyrazol-4-yl)-2-(2-((2,2,2-trifluoroethyl)amino)pyridin-4-yl)oxazole-4-carboxamide]
IC50 (Kasumi-1): 100 to 500 nM
IC50 (Jurkat): 100 to 500 nM
IC50 (Hep3B2.7-1; [3]): 500 to 1000 nM

CC(C)(O)c1cc2nc(C3CCN(Cc4cc5c(cc4F)C(=O)N(C4CCC(=O)NC4=O)C5)CC3)sc2cc1NC(=O)c1cccc(C(F)(F)F)n1 (stereo not shown) [GT-04506, N-(2-(1-((2-(2,6-dioxopiperidin-3-yl)-6-fluoro-1-oxoisoindolin-5-yl)methyl)piperidin-4-yl)-5-(2-hydroxypropan-2-yl)benzo[d]thiazol-6-yl)-6-(trifluoromethyl)picolinamide]
IC50 (Jurkat): 50 to 100 nM
IC50 (CCRF-CEM; [2]): 100 to 500 nM
IC50 (LNcap): 100 to 500 nM
